{"source": "patent US10857211B2", "about": "“Genomic instability markers in Fanconi anemia” (Children's Hospital Medical Center, priority 2014, dated 2020)", "key": {"SCC1 cells [1]": {"test_system": "SCC1 cells", "assay": "Matrigel-coated transwell invasion assay, SCC1 cells", "format": "cell-based, human", "settings": "for invasion of FANCD2sh-treated SCC1 cells: Matrigel-coated transwells, 22 hours", "method": "(§1) FIGS. 23A and B show a pathway loss promotes invasion of squamous tumor cells. Indicated cells were treated with the indicated shRNA vectors and then plated in Matrigel-coated transwells. After 22 hours, invasive cells were quantified.\nAfter 22 hours, invasive cells were quantified. Representative images are shown. Experiments were carried out in duplicate, and standard deviation calculated.\nFA pathway loss promoted motility and invasion. To assess motility and invasiveness of FA-deficient cells, the Matrigel cell invasion assay was used. […] To rule out off-target effects of the lentivirus, an shRNA-resistant EGFP-FANCD2 construct was introduced. The EGFP-FANCD2 fusion protein was expressed in GFP+ cells (but not GFP− cells), and was sufficient to block invasion of FANCD2sh-treated SCC1 cells (FIG. 23B). Similarly, FANCA and FANCJ knockdown stimulated invasion in SCC1 cells (FIG. 23C). […] Gains in cellular motility were also observed for normal oral keratinocytes (NOKS): 1.3% of NTsh normal oral keratinocytes (NOKS) cells plated were able to migrate through matrigel. This invasion frequency doubled upon FANCD2 knockdown, highlighting potential relevance for FA loss for the motility of normal cells (data not shown)."}, "SCC1 cells [2]": {"test_system": "SCC1 cells", "assay": "Cell growth in culture, SCC1 cells", "format": "cell-based, human", "settings": "for growth of FANCD2sh-treated SCC1 cells: NSC23766: 48 hours culture"}, "SCC1 cells [3]": {"test_system": "SCC1 cells", "assay": "Phalloidin staining, quantification of intercellular projections in SCC1 cells", "format": "cell-based, human", "settings": "FANCD2sh- and FANCJsh SCC1 cells, phalloidin stain", "text": "(§2) Percentages of cells in G2/M are indicated. […] Images were taken at the same magnification and exposure. […] Errors bars represent standard deviation; ** p<0.001; *** p<0.0001 (ANOVA)."}, "SCC1 cells [4]": {"test_system": "SCC1 cells", "assay": "Flow cytometry-based cell-cycle analysis after melphalan, SCC1 cells", "design": "species or system human", "settings": "FANCD2-deficient SCC1 cells compared to NTsh", "text": "as §2\nFA pathway loss leads to cytoskeletal and membrane aberrations in HNSCC cells. A significant proportion of sporadic HNSCCs harbor somatic mutations in FA and FA-related genes (33). To test for biological effects of FA pathway loss, knockdown models of HNSCC were created using published lentiviral shRNA vectors (15, 41). First, the HPV-negative (UM-)SCC1 cell line was knocked down for FANCA, FANCD2, and FANCJ. Western blot analyses verified specific and efficient FA protein depletion (FIG. 22A). To verify that FANCD2 depletion induced classical FA phenotypes, DNA crosslinker sensitivity was quantified. […] This was similar to FA lymphoblasts and fibroblasts that also respond to melphalan with G2/M cell-cycle arrest (42-43). FANCA- and FANCJ-deficient SCC1 cells responded similarly, as did UMSCC6 and UMSCC47 HNSCC cell lines depleted for FA proteins (data not shown). Thus, FA knockdown in HPV-positive and -negative […] cells induced the classic FA DNA-crosslinker sensitivity phenotype."}, "pDNA-PKcs": {"molecular_target": "T1, pDNA-PKcs (Homo sapiens, UniProt P78527)", "T1 construct": "Western blot analysis of NTsh-, FANCD2sh- and FANCJsh-treated SCC1 cells that were subjected to a 30-minute pulse of bleomycin; endogenous in cells; host or cells: UM-SCC1 (SCC1) HNSCC cells carrying NTsh, FANCD2sh or FANCJsh lentiviral shRNA", "assay": "Western blot of pDNA-PKcs in SCC1 cells after bleomycin pulse", "format": "cell-based", "settings": "10 uM NU7026; 30-minute bleomycin pulse; FANCD2sh-, FANCJsh- and control (NTsh) SCC1 cells", "text": "DNA-PK/Rac1 signaling occurred in response to FA pathway loss and was required for cytoskeletal re-organization and invasion. […] These defects are accompanied, under some circumstances, by a corresponding increase in the activity of error-prone non-homologous end joining (NHEJ) pathway components (27-28). Repair by NHEJ requires activation of the catalytic subunit of DNA-dependent protein kinase (DNA-PKcs) and subsequent autophosphorylation on serine […] (pDNA-PKcs). The inventors first determined whether DNA-PKcs signaling was activated and involved in FA-associated invasion. FANCD2sh- and FANCJsh-treatment of SCC1 cells stimulated pDNA-PKcs."}, "Rac1": {"test_system": "Rac1", "assay": "Rac1-GTP pulldown assay in SCC1 cells", "format": "cell-based, human", "text": "Members of the small GTPase Rho, Rac and CDC42 family of signaling molecules were key players in normal and transformed cell morphology, adhesion, motility, and invasion (46). […] Because Rac1 activation is reported to produce intercellular projections (47-48) similar to the ones noted in FA-deficient cells (FIG. 22E), the inventors carried out Rac1-GTP pull-downs to determine whether Rac1 is activated by FA pathway loss; FANCJsh SCC1 cells were used, since pDNA-PK activation in these cells was robust (FIG. 24A). […] To examine the requirement for Rac1 in cytoskeletal re-organization and invasion of FA-deficient cells, the specific Rac1 small molecule inhibitor NSC23766 was used (49-50). […] Thus, FA pathway loss leads to downstream activation of pDNA-PK and Rac1, and both are required for cytoskeletal rearrangements and invasion."}, "FA-deficient SCC": {"test_system": "FA-deficient SCC", "assay": "Invasion of FA-deficient SCC, rescue by supplementation", "format": "cell-based"}, "SCC47 cells [5]": {"test_system": "SCC47 cells", "assay": "Matrigel-coated transwell invasion assay, SCC47 cells", "format": "cell-based, human", "settings": "100 uM NB-DNJ, 48 hrs; NTsh, FANCD2sh, FANCJsh", "method": "as §1\n(§3) FIGS. 27I and J show NTsh-, FANCD2sh- and FANCJsh-treated SCC1 and SCC47 cells were cultured for 48 hrs in 100 uM NB-DNJ.\nGM3 is the precursor of complex gangliosides (FIG. 27E), a key component of cell membranes, and enriched in lipid rafts (LRs). GM3 and its derivative GM1 localize to microdomains in apical epithelial membranes (68) and GM3 depletion was reported to blocked wound healing in diabetic mice (69). Further, GM3 was elevated in head and neck tumors (compared to adjacent normal tissue) (70) and in serum of HNSCC patients, and was predictive of tumor size and relapse (71). On the other hand, links between GM3 levels and FA have not yet been reported. Targeted analyses by UPLC-MS/MS in normal cutaneous (NIKS) and normal oral (NOKS) keratinocytes, as well as in UM-SCC1 cells verified GM3 regulation across the major carbohydrate component lengths (i.e., from d34:1 to d44:2) (FIG. 27F-H). […] To assess the functional significance of ganglioside accumulation in FA cells, the effect of a ganglioside synthesis inhibitor N-butyldeoxynojirimycin (NB-DNJ)72 was measured on invasion driven by FA pathway loss. […]"}, "SCC47 cells [6]": {"test_system": "SCC47 cells", "assay": "Cell growth in culture, SCC47 cells", "format": "cell-based, human", "settings": "NB-DNJ"}, "GM3": {"test_system": "GM3", "assay": "GM3 levels by targeted MS in NB-DNJ treated cells", "format": "cell-based, human", "settings": "100 uM NB-DNJ, 48 hrs; NTsh-, FANCD2sh- and FANCJsh-treated SCC1 and SCC47 cells", "method": "as §3\nGM3 is the precursor of complex gangliosides (FIG. 27E), a key component of cell membranes, and enriched in lipid rafts (LRs). GM3 and its derivative GM1 localize to microdomains in apical epithelial membranes (68) and GM3 depletion was reported to blocked wound healing in diabetic mice (69). Further, GM3 was elevated in head and neck tumors (compared to adjacent normal tissue) (70) and in serum of HNSCC patients, and was predictive of tumor size and relapse (71). On the other hand, links between GM3 levels and FA have not yet been reported. Targeted analyses by UPLC-MS/MS in normal cutaneous (NIKS) and normal oral (NOKS) keratinocytes, as well as in UM-SCC1 cells verified GM3 regulation across the major carbohydrate component lengths (i.e., from d34:1 to d44:2) (FIG. 27F-H). […] To assess the functional significance of ganglioside accumulation in FA cells, the effect of a ganglioside synthesis inhibitor N-butyldeoxynojirimycin (NB-DNJ)72 was measured on invasion driven by FA pathway loss. NTsh-, FANCD2sh- and FANCJsh-treated SCC1 and SCC47 cells were exposed to NB-DNJ (or vehicle), and subjected to Matrigel invasion assays (FIG. 23)."}}, "note": "“Also recorded” adds a separate entry of the source.", "data": [{"compound": "CCN(CC)CCCC(C)Nc1nc(C)cc(Nc2ccc3nc(C)cc(N)c3c2)n1", "note": "(centres unmarked) [NSC23766]", "values": [{"measurement": "invasion of FANCD2sh-treated SCC1 cells", "setting": "SCC1 cells [1]", "result": "suppressed cell invasion"}, {"measurement": "invasion of control cells", "setting": "SCC1 cells [1]; NTsh control SCC1 cells", "result": "did affect invasion of control cells"}, {"measurement": "growth of FANCD2sh-treated SCC1 cells", "setting": "SCC1 cells [2]", "result": "did not appear to affect growth"}, {"measurement": "number of long intercellular projections", "setting": "SCC1 cells [3]", "result": "reduced the number of long intercellular projections"}]}, {"compound": "N[C@@H](Cc1ccc(N(CCCl)CCCl)cc1)C(=O)O", "note": "[melphalan]", "values": [{"measurement": "proportion of cells in G2/M after melphalan", "setting": "SCC1 cells [4]", "result": "increased proportion of cells in G2/M"}]}, {"compound": "O=c1cc(N2CCOCC2)oc2c1ccc1ccccc12", "note": "[NU7026]", "values": [{"measurement": "pDNA-PKcs level (Western blot)", "setting": "pDNA-PKcs", "result": "undetectable pDNA-PKcs"}, {"measurement": "invasion of FANCD2sh-treated SCC1 cells", "setting": "SCC1 cells [1]", "result": "suppressed invasion"}, {"measurement": "growth of FANCD2sh-treated SCC1 cells", "setting": "SCC1 cells [2]", "result": "did not appear to affect growth"}, {"measurement": "active Rac1 (Rac1-GTP) in FA-deficient cells", "setting": "Rac1; FANCJsh SCC1 cells", "result": "significantly lowered active Rac1"}, {"measurement": "Rac1 activity in control cells", "setting": "Rac1; NTsh control SCC1 cells", "result": "did not affect Rac1 activity"}]}, {"compound": "Oc1ccc([C@H]2COc3cc(O)ccc3C2)cc1", "note": "[equol]", "values": [{"measurement": "invasion of FA-deficient SCC", "setting": "FA-deficient SCC", "result": "rescued"}]}, {"compound": "O=c1c(O)c(-c2ccc(O)c(O)c2)oc2cc(O)cc(O)c12", "note": "[quercetin]", "values": [{"measurement": "invasion of FA-deficient SCC", "setting": "FA-deficient SCC", "result": "rescued"}]}, {"compound": "CC(C)CCC[C@@H](C)[C@H]1CC[C@H]2[C@@H]3CC=C4C[C@@H](O)CC[C@]4(C)[C@H]3CC[C@]12C", "note": "[cholesterol]", "values": [{"measurement": "invasion of FA-deficient SCC", "setting": "FA-deficient SCC", "result": "rescued"}]}, {"compound": "CCCCN1C[C@H](O)[C@@H](O)[C@H](O)[C@H]1CO", "note": "[NB-DNJ, N-butyldeoxynojirimycin]", "values": [{"measurement": "invasion driven by FA loss, SCC1 cells", "setting": "SCC1 cells [1]; 100 uM NB-DNJ, 48 hrs, NTsh, FANCD2sh, FANCJsh", "result": "selectively inhibited invasion driven by FA loss"}, {"measurement": "invasion driven by FA loss, SCC47 cells", "setting": "SCC47 cells [5]", "result": "selectively inhibited invasion driven by FA loss"}, {"measurement": "growth of SCC1 cells", "setting": "SCC1 cells [2]; NB-DNJ", "result": "did not affect the growth"}, {"measurement": "growth of SCC47 cells", "setting": "SCC47 cells [6]", "result": "did not affect the growth"}, {"measurement": "GM3 levels", "setting": "GM3", "result": "reduced GM3 levels; also recorded: successfully repressed GM3 levels"}]}, {"compound": "NeuACα2-3Galβ1-4Glcβ1-1ceramide [GM3]", "values": [{"measurement": "invasion of SCC1 cells with GM3 in cell media", "setting": "SCC1 cells [1]; GM3 50 uM", "result": "doubled the invasion"}, {"measurement": "SCC1 invasion on GM3 addition to culture media", "setting": "SCC1 cells [1]; particularly in FA-proficient cells, data not shown", "result": "stimulated SCC1 invasion"}]}]}
